Data published in US8192962B2, “Processes for detecting toxic substances” (Daikin Industries, Ltd., priority 2001, dated 2012).

Test system: Unknown protein yeast genes
Test: DNA chip mRNA expression in yeast, unknown protein yeast genes (Table 1)
Assay type: cell-based, Saccharomyces cerevisiae S288C
Outline: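 Measured as treated-to-untreated fluorescence ratio on a full-genome yeast DNA chip. Cells (S288C, YPD, 25° C.) were exposed in log phase for two hours to one chemical, dosed to curb growth without killing.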

Measured: The level of expressed mRNA in the presence of chemical substance/The level of expressed mRNA in the absence of chemical substance

COc1cc(CNC(=O)CCCCC=CC(C)C)ccc1O [(12), 8-methyl-N-vanillyl-6-nonenamide]
0.4: yeast gene YLR460C
1.5: yeast gene YDR411C, incubated two hours with chemical substance | yeast gene YFL010C, incubated two hours with chemical substance
1.6: yeast gene YGL121C | yeast gene YGR221C, incubated two hours with chemical substance | yeast gene YLR194C, incubated two hours with chemical substance
1.3: yeast gene YGL053W, incubated two hours with chemical substance | yeast gene YJL082W, incubated two hours with chemical substance | yeast gene YJL151C, incubated two hours with chemical substance | yeast gene YJR008W, incubated two hours with chemical substance | yeast gene YNR068C, incubated two hours with chemical substance | yeast gene YPL222W, incubated two hours with chemical substance
1.0: yeast gene YDL222C, incubated two hours with chemical substance | yeast gene YDR330W, incubated two hours with chemical substance | yeast gene YER158C, incubated two hours with chemical substance | yeast gene YER163C, incubated two hours with chemical substance | yeast gene YGR101W, incubated two hours with chemical substance | yeast gene YIL041W, incubated two hours with chemical substance | yeast gene YJL057C, incubated two hours with chemical substance | yeast gene YJL066C, incubated two hours with chemical substance | yeast gene YJL152W, incubated two hours with chemical substance | yeast gene YJL161W, incubated two hours with chemical substance | yeast gene YJL171C, incubated two hours with chemical substance | yeast gene YKL071W | yeast gene YKL151C, incubated two hours with chemical substance | yeast gene YLR152C, incubated two hours with chemical substance | yeast gene YNL044W, incubated two hours with chemical substance | yeast gene YOL032W, incubated two hours with chemical substance | yeast gene YOL036W, incubated two hours with chemical substance | yeast gene YOL071W, incubated two hours with chemical substance | yeast gene YOL082W, incubated two hours with chemical substance | yeast gene YOR019W, incubated two hours with chemical substance | yeast gene YOR197W, incubated two hours with chemical substance
0.8: yeast gene YDR511W, incubated two hours with chemical substance | yeast gene YFL024C | yeast gene YGL037C, incubated two hours with chemical substance | yeast gene YLR324W, incubated two hours with chemical substance | yeast gene YML117W, incubated two hours with chemical substance | yeast gene YMR095C, incubated two hours with chemical substance | yeast gene YMR107W, incubated two hours with chemical substance | yeast gene YNL115C, incubated two hours with chemical substance | yeast gene YOL047C, incubated two hours with chemical substance | yeast gene YPL206C, incubated two hours with chemical substance
2.4: yeast gene YMR102C, incubated two hours with chemical substance
0.5: yeast gene YCR102C
2.9: yeast gene YOL150C
1.1: yeast gene YEL001C, incubated two hours with chemical substance | yeast gene YER035W, incubated two hours with chemical substance | yeast gene YGL047W, incubated two hours with chemical substance | yeast gene YHR199C, incubated two hours with chemical substance | yeast gene YIL087C, incubated two hours with chemical substance | yeast gene YKL153W, incubated two hours with chemical substance | yeast gene YKL195W, incubated two hours with chemical substance | yeast gene YLR054C, incubated two hours with chemical substance | yeast gene YLR387C, incubated two hours with chemical substance | yeast gene YMR067C, incubated two hours with chemical substance | yeast gene YMR295C, incubated two hours with chemical substance | yeast gene YNL092W, incubated two hours with chemical substance | yeast gene YNL234W, incubated two hours with chemical substance | yeast gene YNL305C, incubated two hours with chemical substance
0.9: yeast gene YDL204W, incubated two hours with chemical substance | yeast gene YDR545W, incubated two hours with chemical substance | yeast gene YER079W, incubated two hours with chemical substance | yeast gene YER106W, incubated two hours with chemical substance | yeast gene YER175C, incubated two hours with chemical substance | yeast gene YGL199C, incubated two hours with chemical substance | yeast gene YGR154C, incubated two hours with chemical substance | yeast gene YIL023C, incubated two hours with chemical substance | yeast gene YJR054W, incubated two hours with chemical substance | yeast gene YKR091W, incubated two hours with chemical substance | yeast gene YNL074C, incubated two hours with chemical substance | yeast gene YNL156C, incubated two hours with chemical substance | yeast gene YOL117W, incubated two hours with chemical substance | yeast gene YOL131W, incubated two hours with chemical substance | yeast gene YPL196W, incubated two hours with chemical substance | yeast gene YPR023C, incubated two hours with chemical substance | yeast gene YPR151C, incubated two hours with chemical substance
1.2: yeast gene YBL048W | yeast gene YDL072C, incubated two hours with chemical substance | yeast gene YFL006W, incubated two hours with chemical substance | yeast gene YMR097C, incubated two hours with chemical substance | yeast gene YMR180C, incubated two hours with chemical substance | yeast gene YOL083W, incubated two hours with chemical substance
1.8: yeast gene YHR138C, incubated two hours with chemical substance | yeast gene YLR350W, incubated two hours with chemical substance | yeast gene YMR191W, incubated two hours with chemical substance | yeast gene YPL087W, incubated two hours with chemical substance
0.7: yeast gene YFL032W, incubated two hours with chemical substance | yeast gene YGR130C, incubated two hours with chemical substance | yeast gene YNL281W, incubated two hours with chemical substance
0.6: yeast gene YAL053W, incubated two hours with chemical substance | yeast gene YCR043C | yeast gene YHL042W | yeast gene YIL012W | yeast gene YIL057C | yeast gene YIL089W | yeast gene YIL102C | yeast gene YKL086W, incubated two hours with chemical substance | yeast gene YMR009W, incubated two hours with chemical substance | yeast gene YOR129C
2.0: yeast gene YLR149C, incubated two hours with chemical substance
1.7: yeast gene YER004W, incubated two hours with chemical substance | yeast gene YMR184W, incubated two hours with chemical substance
1.9: yeast gene YMR316W, incubated two hours with chemical substance
2.2: yeast gene YMR090W
1.4: yeast gene YBL107C | yeast gene YGR110W | yeast gene YOL162W, incubated two hours with chemical substance
